Target: T1, full-length recombinant human NEK7 (Homo sapiens, UniProt Q8TDX7)
T1 construct: full-length recombinant human NEK7; GST (N); purchased SignalChem N09-10G; host or cells: Sf9 insect cells (baculovirus)
Test: NEK7 enzymatic assay ([33P]-ATP, casein substrate)
Type: biochemical
Settings: Table 2b; recombinant human NEK7, casein substrate
Protocol: In some embodiments, the IC50 of the compounds of Structure (I), (Ia), (Ib), (Ic), (Id), (Ie), or (If) to inhibit NEK7 was determined by the concentration of the compound required to inhibit 50% of the activity of the NEK kinase.
(§1) Casein substrate (from bovine milk, hydrolyzed and partially dephosphorylated mixture of α, β and κ caseins, obtained from Sigma Aldrich, catalogue #C4765, diluted in distilled water to a final concentration of 1 mg/mL) and full-length recombinant human NEK7 (expressed by baculovirus in Sf9 insect cells using a N-terminal GST tag, obtained from SignalChem, catalogue #N09-10G, 0.1 μg/μL) were mixed in assay buffer (20 mM Hepes pH 7.5, 10 mM MgCl2, 1 mM EGTA, 0.02% Brij35, 0.02 mg/ml BSA, 0.1 mM Na3 VO4, 2 mM DTT, 1% DMSO). Compounds of interest (serial 3-fold dilution in DMSO from 10 μM to 0.5 nM) or vehicle (1% DMSO) were dispensed into the kinase reaction mixture by Acoustic technology (Echo550, nanoliter range). After incubation at room temperature for 20 minutes, the kinase reaction was initiated by addition of [^33P]-ATP (specific activity 10 μCi/μl) and the mixture was incubated at room temperature for 2 hours. The reaction was then stopped by spotting the reaction mixture on strips of phosphocellulose P81 paper. Following washing, the radioactivity of the P81 paper was measured and kinase activity data were expressed as the percent remaining kinase activity in test samples compared to vehicle reactions. IC50 values and curve fits were obtained using Prism (GraphPad Software).
as §1, with “μg/L)” for “μg/μL)”, “Na3VO4,” for “Na3 VO4,”, “(Echo550;” for “(Echo550,”

T1 sequence (Q8TDX7 whole entry): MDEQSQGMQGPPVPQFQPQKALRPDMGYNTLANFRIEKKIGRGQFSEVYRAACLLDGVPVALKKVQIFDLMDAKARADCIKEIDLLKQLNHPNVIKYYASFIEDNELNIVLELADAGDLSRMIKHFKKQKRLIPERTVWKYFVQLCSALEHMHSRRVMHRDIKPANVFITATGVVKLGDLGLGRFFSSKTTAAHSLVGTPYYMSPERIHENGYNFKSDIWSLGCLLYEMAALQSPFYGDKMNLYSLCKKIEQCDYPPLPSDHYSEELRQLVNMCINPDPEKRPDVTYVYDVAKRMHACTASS

IC50 [nM]	SMILES
> 1500	Cc1nc2c(Oc3ccc(NC(=O)Nc4cc(C(C)(C)C)nn4-c4ccccc4)c(F)c3)ccnc2[nH]1 [Ib-19, 1-(3-(tert-butyl)-1-phenyl-1H-pyrazol-5-yl)-3-(2-fluoro-4-((2-methyl-3H-imidazo[4,5-b]pyridin-7-yl)oxy)phenyl)urea]
> 1500	CC(C)(C)c1cc(NC(=O)NC2CCC(Oc3ccnc4[nH]cc(Cl)c34)CC2)n(-c2ccccc2)n1 (stereo not drawn) [Ib-20, 1-(3-(tert-butyl)-1-phenyl-1H-pyrazol-5-yl)-3-(4-((3-chloro-1H-pyrrolo[2,3-b]pyridin-4-yl)oxy)cyclohexyl)urea]
> 1500	CN1CCC(n2nc(C(C)(C)C)cc2NC(=O)Nc2ccc(Oc3ccnc4[nH]cc(Cl)c34)cc2F)CC1 [Ib-21, 1-(3-(tert-butyl)-1-(1-methylpiperidin-4-yl)-1H-pyrazol-5-yl)-3-(4-((3-chloro-1H-pyrrolo[2,3-?]pyridin-4-yl)oxy)-2-fluorophenyl)urea]
> 1500	CC(C)(C)c1cc(NC(=O)Cc2ccc(Oc3ccnc4[nH]cc(Cl)c34)cc2F)n(-c2ccccc2)n1 [Ib-22, N-(3-(tert-butyl)-1-phenyl-1H-pyrazol-5-yl)-2-(4-((3-chloro-1H-pyrrolo[2,3-b]pyridin-4-yl)oxy)-2-fluorophenyl)acetamide]

Same assay, conditions: Table 2d; recombinant human NEK7, casein substrate

SMILES	IC50 [nM]
CCN1CCN(Cc2ccc(NC(=O)Nc3ccc(-c4nn(C5CC5)c5ncnc(N)c45)cc3F)cc2C(F)(F)F)CC1 [Id-7, 1-(4-(4-amino-t-cyclopropyl-1H-pyrazolo[3,4-d]pyrimidin-3-yl)-2-fluorophenyl)-3-(4-((4-ethylpiperazin-1-yl)methyl)-3-(trifluoromethyl)phenyl)urea]	> 1500
Cc1cn(-c2ccc(NC(=O)Nc3ccc(-c4cn(C5CC5)c5ncnc(N)c45)cc3F)cc2C(F)(F)F)cn1 [Id-23]	> 1500
Nc1ncnc2c1c(-c1ccc(NC(=O)Nc3ccc(CN4CCOCC4)cc3F)c(F)c1)nn2C1CC1 [Id-26, 1-(4-(4-amino-1-cyclopropyl-1H-pyrazolo[3,4-d]pyrimidin-3-yl)-2-fluorophenyl)-3-(2-fluoro-4-(morpholinomethyl)phenyl)urea]	> 1500
CN1CCN(Cc2ccc(NC(=O)Nc3ccc(-c4nn(C5CC5)c5ncnc(N)c45)cn3)cc2C(F)(F)F)CC1 [Id-29, 1-(5-(4-amino-1-cyclopropyl-1H-pyrazolo[3,4-d]pyrimidin-3-yl)pyridin-2-yl)-3-(4-((4-methylpiperazin-1-yl)methyl)-3-(trifluoromethyl)phenyl)urea]	151 to 300
Cc1cc(NC(=O)Nc2ccc(-c3cn(C4CC4)c4ncnc(N)c34)cc2F)ccc1N1CCOCC1 [Id-32, 1-(4-(4-amino-7-cyclopropyl-7H-pyrrolo[2,3-d]pyrimidin-5-yl)-2-fluorophenyl)-3-(3-methyl-4-morpholinophenyl)urea]	> 1500
COc1cc(NC(=O)Nc2ccc(-c3cn(C4CC4)c4ncnc(N)c34)cc2F)ccc1CN1CCN(C)CC1 [Id-37, 1-(4-(4-amino-7-cyclopropyl-7H-pyrrolo[2,3-d]pyrimidin-5-yl)-2-fluorophenyl)-3-(3-methoxy-4-((4-methylpiperazin-1-yl)methyl)phenyl)urea]	> 1500
CN1CCCN(Cc2ccc(NC(=O)Nc3ccc(-c4cn(C5CC5)c5ncnc(N)c45)cc3F)cc2C(F)(F)F)CC1 [Id-43, 1-(4-(4-amino-7-cyclopropyl-7H-pyrrolo[2,3-d]pyrimidin-5-yl)-2-fluorophenyl)-3-(4-((4-methyl-1,4-diazepan-1-yl)methyl)-3-(trifluoromethyl)phenyl)urea]	< 150
CN(C)C1CCN(Cc2ccc(NC(=O)Nc3ccc(-c4cn(C5CC5)c5ncnc(N)c45)cc3F)cc2C(F)(F)F)C1 (stereo not drawn) [Id-44, 1-(4-(4-amino-7-cyclopropyl-7H-pyrrolo[2,3-d]pyrimidin-5-yl)-2-fluorophenyl)-3-(4-((3-(dimethylamino)pyrrolidin-1-yl)methyl)-3-(trifluoromethyl)phenyl)urea]	< 150
Cc1cn(-c2ccc(NC(=O)Nc3ccc(-c4cn(C5CC5)c5ncnc(N)c45)cc3F)cc2C(F)(F)F)cn1 [Id-45, 1-(4-(4-amino-7-cyclopropyl-7H-pyrrolo[2,3-d]pyrimidin-5-yl)-2-fluorophenyl)-3-(4-(4-methyl-1H-imidazol-1-yl)-3-(trifluoromethyl)phenyl)urea]	501 to 1500
Nc1ncnc2c1c(-c1ccc(NC(=O)Nc3ccc(CN4CCOCC4)c(F)c3)c(F)c1)nn2C1CC1 [Id-47, 1-(4-(4-amino-1-cyclopropyl-1H-pyrazolo[3,4-d]pyrimidin-3-yl)-2-fluorophenyl)-3-(3-fluoro-4-(morpholinomethyl)phenyl)urea]	> 1500

Further lines, results first:

IC50 [nM]	SMILES
> 1500	Cc1cc(NC(=O)Nc2ccc(-c3nn(C(C)C)c4ncnc(N)c34)cc2)ccc1N1CCOCC1 [Id-1, 1-(4-(4-amino-1-isopropyl-1H-pyrazolo[3,4-J]pyrimidin-3-yl)phenyl)-3-(3-methyl-4-morpholinophenyl)urea]
151 to 300	CN1CCN(Cc2ccc(NC(=O)Nc3ccc(-c4cn(C5CC5)c5ncnc(N)c45)cc3Cl)cc2C(F)(F)F)CC1 [Id-34, 1-(4-(4-amino-7-cyclopropyl-7H-pyrrolo[2,3-d]pyrimidin-5-yl)-2-chlorophenyl)-3-(4-((4-methylpiperazin-1-yl)methyl)-3-(trifluoromethyl)phenyl)urea]
301 to 500	CN1CCN(Cc2ccc(NC(=O)Nc3ccc(-c4cn(C5CC5)c5ncnc(N)c45)cc3F)cc2F)CC1 [Id-35, 1-(4-(4-amino-7-cyclopropyl-7H-pyrrolo[2,3-d]pyrimidin-5-yl)-2-fluorophenyl)-3-(3-fluoro-4-((4-methylpiperazin-1-yl)methyl)phenyl)urea]
< 150	CN1CCN(Cc2ccc(NC(=O)Nc3ccc(-c4cn(C5CC5)c5ncnc(N)c45)cc3F)cc2Cl)CC1 [Id-36, 1-(4-(4-amino-7-cyclopropyl-7H-pyrrolo[2,3-d]pyrimidin-5-yl)-2-fluorophenyl)-3-(3-chloro-4-((4-methylpiperazin-1-yl)methyl)phenyl)urea]
< 150	CCN1CCN(Cc2ccc(NC(=O)Nc3ccc(-c4cn(C5CC5)c5ncnc(N)c45)cc3F)cc2C(F)(F)F)CC1 [Id-40, 1-(4-(4-amino-7-cyclopropyl-7H-pyrrolo[2,3-d]pyrimidin-5-yl)-2-fluorophenyl)-3-(4-((4-ethylpiperazin-1-yl)methyl)-3-(trifluoromethyl)phenyl)urea]
< 150	Nc1ncnc2c1c(-c1ccc(NC(=O)Nc3ccc(CN4CCN(CCO)CC4)c(C(F)(F)F)c3)c(F)c1)cn2C1CC1 [Id-41, 1-(4-(4-amino-7-cyclopropyl-7H-pyrrolo[2,3-d]pyrimidin-5-yl)-2-fluorophenyl)-3-(4-((4-(2-hydroxyethyl)piperazin-1-yl)methyl)-3-(trifluoromethyl)phenyl)urea]
< 150	COCCN1CCN(Cc2ccc(NC(=O)Nc3ccc(-c4cn(C5CC5)c5ncnc(N)c45)cc3F)cc2C(F)(F)F)CC1 [Id-42, 1-(4-(4-amino-7-cyclopropyl-7H-pyrrolo[2,3-d]pyrimidin-5-yl)-2-fluorophenyl)-3-(4-((4-(2-methoxyethyl)piperazin-1-yl)methyl)-3-(trifluoromethyl)phenyl)urea]
< 150	CN1CCC(Oc2ccc(NC(=O)Nc3ccc(-c4cn(C5CC5)c5ncnc(N)c45)cc3F)cc2C(F)(F)F)CC1 [Id-46, 1-(4-(4-amino-7-cyclopropyl-7H-pyrrolo[2,3-d]pyrimidin-5-yl)-2-fluorophenyl)-3-(4-((1-methylpiperidin-4-yl)oxy)-3-(trifluoromethyl)phenyl)urea]
301 to 500	CN1CCN(Cc2ccc(NC(=O)Nc3ccc(-c4nn(C5CC5)c5ccnc(N)c45)cn3)cc2C(F)(F)F)CC1 [Id-50, 1-(5-(4-amino-1-cyclopropyl-1H-pyrazolo[4,3-c]pyridin-3-yl)pyridin-2-yl)-3-(4-((4-methylpiperazin-1-yl)methyl)-3-(trifluoromethyl)phenyl)urea]
501 to 1500	CN1CCC(=Cc2ccc(NC(=O)Nc3ccc(-c4cn(C5CC5)c5ncnc(N)c45)cc3F)cc2C(F)(F)F)CC1 [Id-51, 1-(4-(4-amino-7-cyclopropyl-7H-pyrrolo[2,3-d]pyrimidin-5-yl)-2-fluorophenyl)-3-(4-((1-methylpiperidin-4-ylidene)methyl)-3-(trifluoromethyl)phenyl)urea]

— patent publication US20230210853A1 (Halia Therapeutics, Inc., priority 2020, published 2023)
